Measured values taken from publication PMC4774894 (Journal of natural products, 2015).

Tested on: HIV-1 NL4-3
Conditions: for selectivity index CC50/EC50: CC50 (MT4 cells) / EC50 (HIV-1 NL4-3 in MT4); for selectivity index (SI) (bound or span stated in text for a group of compounds): bound or span over the group named

| Structure (SMILES) | selectivity index CC50/EC50 | selectivity index (SI) (bound or span stated in text for a group of compounds) |
| --- | --- | --- |
| C=C(C)[C@]12C[C@@H](COC(=O)c3ccccc3)[C@]34OC5(CCCCCCC[C@H](C)[C@@H]6[C@@H]3[C@]3(O[C@]6(C)OC3=O)[C@H](O)[C@@]3(COC(=O)CCCCCCCCCCCCCCC)O[C@H]3[C@H]4[C@H]1O5)O2 [Compound 1, Stelleralide D] | ≥18 | < 50 |
| C=C(C)[C@]12C[C@@H](COC(=O)c3ccccc3)[C@]34OC5(CCCCCCC[C@H](C)[C@@H]6[C@@H]3[C@]3(O[C@]6(C)OC3=O)[C@H](O)[C@@]3(COC(=O)CCCCCCC/C=C\C/C=C\CCCCC)O[C@H]3[C@H]4[C@H]1O5)O2 [Compound 2, Stelleralide E] | ≥1 | < 50 |
| C=C(C)[C@]12C[C@@H](COC(C)=O)[C@@]34OC5(O[C@@H]1[C@@H]3[C@@H]1O[C@]1(CO)[C@@H](O)[C@@]1(O)[C@H]4[C@H]([C@H](C)[C@@H]1OC(=O)c1ccccc1)[C@H](C)C[C@@H](OC(=O)c1ccccc1)CCCC[C@H]5O)O2 [Compound 3, Stelleralide F] | ≥12903 | more than 10 000 |
| C=C(C)[C@]12C[C@@H](COC(=O)c3ccccc3)[C@@]34OC5(O[C@@H]1[C@@H]3[C@@H]1O[C@]1(CO)[C@@H](O)[C@@]1(O)[C@H]4[C@H]([C@H](C)[C@@H]1OC(=O)c1ccccc1)[C@H](C)C[C@@H](OC(=O)c1ccccc1)CCCC[C@H]5O)O2 [Compound 4, Stelleralide G] | ≥15342 | more than 10 000 |
| C=C(C)[C@]12C[C@@H](COC(=O)c3ccccc3)[C@@]34OC5(O[C@@H]1[C@@H]3[C@@H]1O[C@]1(COC(=O)c1ccccc1)[C@@H](O)[C@@]1(O)[C@H]4[C@H]([C@H](C)[C@@H]1O)[C@H](C)CCCCCC[C@H]5O)O2 [Compound 5, Stelleralide H] | ≥13163 | more than 10 000 |
| C=C(C)[C@@]12OC3(/C=C/C=C/CCCCCCCCCC)O[C@@H]1[C@@H]1[C@@H]4O[C@]4(CO)[C@@H](O)[C@]4(O)C(=O)C(C)=C[C@H]4[C@@]1(O3)[C@H](C)[C@H]2O [Compound 6, Stelleralide I] | ≥135 | – |
| C=C(C)[C@]1(O)C[C@@H](C)[C@@]2(O)[C@H]([C@H]1OC(=O)/C=C/C=C/CCCCCCCCC)[C@H](O)[C@@](O)(CO)[C@@H](O)[C@]1(O)C(=O)C(C)=C[C@H]12 [Compound 7, Stelleralide J] | ≥100 | – |
| C=C(C)[C@]12C[C@@H](COC(=O)c3ccccc3)[C@]34OC5(CCCCCCC[C@H](C)[C@@H]6[C@@H]3[C@]3(O[C@]6(C)OC3=O)[C@H](O)[C@@]3(CO)O[C@H]3[C@H]4[C@H]1O5)O2 [Compound 8, stelleralide C] | ≥41 | < 50 |
| C=C(C)[C@]12C[C@@H](C)[C@]34O[C@]5(CCCCCCC[C@H](C)[C@@H]6[C@@H]3[C@]3(O[C@]6(C)OC3=O)[C@H](O)[C@@]3(CO)O[C@H]3[C@H]4[C@H]1O5)O2 [Compound 9, pimelotide A] | ≥16 | < 50 |
| C=C(C)[C@]12C[C@@H](COC(=O)c3ccccc3)[C@@]34OC5(O[C@@H]1[C@@H]3[C@@H]1O[C@]1(CO)[C@@H](O)[C@@]1(O)[C@H]4[C@H]([C@H](C)[C@@H]1OC(=O)c1ccccc1)[C@H](C)CCCCCC[C@H]5O)O2 [Compound 10, gnidimacrin] | ≥21500 | more than 10 000 |
| C=C(C)[C@]12C[C@@H](C)[C@@]34OC5(CCCCCCC[C@@H](C)[C@H]6[C@H](C)[C@H](OC(=O)c7ccccc7)[C@@](O)([C@H](O)[C@@]7(CO)O[C@H]7[C@H]3[C@H]1O5)[C@@H]64)O2 [Compound 11, pimelea factor P2] | ≥14272 | more than 10 000 |
| C=C(C)[C@]12C[C@@H](COC(=O)c3ccccc3)[C@@]34OC5(CCCCCCC[C@@H](C)[C@H]6[C@H](C)C(=O)[C@@](O)([C@H](O)[C@@]7(CO)O[C@H]7[C@H]3[C@H]1O5)[C@@H]64)O2 [Compound 12, wikstroelide F] | ≥318 | – |
| C=C(C)[C@@]12O[C@@]3(/C=C/C=C/CCCCCCCCC)O[C@@H]1[C@@H]1[C@@H]4O[C@]4(CO)[C@@H](O)[C@]4(O)C(=O)C(C)=C[C@H]4[C@@]1(O3)[C@H](C)[C@H]2OC(C)=O [Compound 13, wikstroelide A] | ≥1300 | – |
| C=C(C)[C@@]12OC3(/C=C/C=C/CCCCCCCCCC)O[C@@H]1[C@@H]1[C@@H]4O[C@]4(CO)[C@@H](O)[C@]4(O)C(=O)C(C)=C[C@H]4[C@@]1(O3)[C@H](C)[C@H]2OC(C)=O [Compound 14, wikstroelide B] | ≥392 | – |
| C=C(C)[C@]12C[C@@H](C)[C@@]34OC(/C=C/C=C/CCCCCCCCCC)(O[C@@H]1[C@@H]3[C@@H]1O[C@]1(CO)[C@@H](O)[C@]1(O)C(=O)C(C)=C[C@H]14)O2 [Compound 15, wikstrotoxin A] | ≥1284 | – |
| C=C(C)[C@]12C[C@@H](C)[C@@]34O[C@](/C=C/C=C/CCCCCCCCC)(O[C@@H]1[C@@H]3[C@@H]1O[C@]1(CO)[C@@H](O)[C@]1(O)C(=O)C(C)=C[C@H]14)O2 [Compound 16, huratoxin] | ≥5384 | – |
| C=C(C)[C@]1(O)C[C@@H](C)[C@@]2(O)[C@H]([C@H]1OC(=O)/C=C/C=C/CCCCCCCCC)[C@@H]1O[C@]1(CO)[C@@H](O)[C@]1(O)C(=O)C(C)=C[C@H]12 [Compound 17, wikstroelide M] | ≥281 | – |
| C=C(C)[C@@]1(O)[C@H](OC(=O)/C=C/C=C/CCCCCCCCC)[C@@H]2[C@@H]3O[C@]3(CO)[C@@H](O)[C@]3(O)C(=O)C(C)=C[C@H]3[C@@]2(O)[C@H](C)[C@H]1OC(C)=O [Compound 18, wikstroelide J] | ≥345 | – |
| C=C(C)[C@]12C[C@@H](C)[C@@]34O[C@](CCCCCCCCC)(O[C@@H]1[C@@H]3[C@@H]1O[C@]1(CO)[C@@H](O)[C@]1(O)C(=O)C(C)=C[C@H]14)O2 [Compound 19, simplexin] | ≥400 | – |
